Earlier results in US20120252862A1, “Dissolvable Film Strip Comprising Natural Components” (YEDITEPE UNIVERSITES, priority 2009, published 2012).

Details: single oral dose

Compound: O=C(O[C@@H]1Cc2c(O)cc(O)cc2O[C@@H]1c1cc(O)c(O)c(O)c1)c1cc(O)c(O)c(O)c1 [EGCG, epigallocatechin gallate]
- Dose reported safe to be applied: up to 1600 mg
